Results reported in US20120100157A1, “Biomarker and Method for Predicting Sensitivity to MET Inhibitors” (Van Andel Research Institute, priority 2010, published 2012).

Columns and labels:
[1] = system: X01-GB; experiment: In vivo efficacy study, X01-GB GBM stem cell tumors; set-up: species or system mice; details: for tumor response: X01-GB tumors, erlotinib at 75 mg/kg
Description: (§1) All animal studies were approved by the IACUC of the Van Andel Research Institute. Each GBM cell line (5×10^5 cells in 100 μl PBS) was inoculated into both SCID and SCIDhgf mice subcutaneously. For V13 tumor line, tumors were transplanted into SCIDhgf mice at the flank to initiate tumor growth. Tumor size was measured with a caliper twice a week. When average tumor size reached 100 mm^3, mice were grouped (n=10) for treatment as indicated. Dosing with SGX523 and/or erlotinib was delivered once daily by oral gavage for 3 weeks. Vehicles used were 0.5% MC 400 with 0.05% Tween 80 (SGX523) and 0.5% (w/v) methyl cellulose (erlotinib). Tumor size was measured by a caliper twice a week. Body weight was measured once a week. All mice were sacrificed 24 h after last dose. To determine the effectiveness of treatment, the average tumor size of each group from the last measurement was analyzed with Student's t test (α=0.05).

[2] = system: U87M2; experiment: In vivo SGX523 and erlotinib therapeutic efficacy study, U87M2 xenograft; set-up: species or system mice
Description: as §1

[3] = system: DBM2; experiment: In vivo SGX523 and erlotinib therapeutic efficacy study, DBM2 xenograft; set-up: species or system mice
Description: as §1

[4] = system: U251M2; experiment: In vivo SGX523 and erlotinib therapeutic efficacy study, U251M2 xenograft; set-up: species or system mice; details: for tumor sensitivity to single agent: either drug alone
Description: as §1

[5] = system: U118; experiment: Serum HGF ELISA, U118 tumor-bearing mice; type: in vivo; details: end of efficacy study, mean ± SD
Description: (§2) At the end of the efficacy study, mouse serum was collected from each group and kept at −80° C. until use. For HGF expression level, 50 μl of serum was used for an ELISA test (R&D) according to the kit instructions. At least five samples were tested. Data represent mean±SD. Student's t test was used for statistical analysis.

[6] = system: SF295 SQ1; experiment: Serum HGF ELISA, SF295 SQ1 tumor-bearing mice; type: in vivo; details: end of efficacy study, mean ± SD
Description: as §2

[7] = system: U251M2, T98G, and DBM2 cells; experiment: HGF- and EGF-induced uPA activity in GBM cells without autocrine HGF; type: cell-based, human; details: for cross inhibition between MET and EGFR pathways (uPA activity): early time point in vitro
Description: (§3) Cells were grown overnight in DMEM/10% FBS. Drugs were dissolved in DMSO and serially diluted from stock concentrations into DMEM/10% FBS medium and added to the appropriate wells. Immediately after drug or reagent addition, HGF/SF (60 ng/ml) was added to all wells (with the exception of wells used as controls to calculate basal growth and uPA-plasmin activity levels). Twenty-four hours after drug and HGF/SF addition, plates were processed for the determination of plasmin activity as described previously (22). Wells were washed twice with DMEM (without phenol red; Life Technologies, Inc.), and 200 μl of reaction buffer [50% (v/v) 0.05 units/ml plasminogen in DMEM (without phenol red), 40% (v/v) 50 mM Tris buffer (pH 8.2), and 10% (v/v) 3 mM Chromozyme PL (Boehringer Mannheim) in 100 mM glycine solution] was added to each well. The plates were then incubated at 37° C., 5% CO2, for 4 h, at which time the absorbance was read on an automated spectrophotometric plate reader at the single wavelength of 405 nm.

[8] = system: V13; experiment: In vivo efficacy study, V13 GBM patient-derived xenograft; set-up: species or system mice; details: for tumor response: V13 in SCIDhgf mice, Erlotinib at 75 mg/kg
Description: The V13 GBM xenograft tumor line was generated from the primary tumor of a GBM patient upon surgical removal. The fresh tumor specimen was split into two pieces, one to be divided and implanted into 5 nude mice to propagate tumor growth and another piece to be directly digested with 0.05% trypin into single cells and grown in Neuro-basal medium with 10% FBS supplemented with EGF (20 ng/ml), bFGF (20 ng/ml) and 1% penicillin and streptomycin at 37° C. The tumors growing from nude mice were analyzed using FISH to compare them with the original tumor and were further transplanted into the host nude mice to maintain tumor growth in vivo. All studies involving human subjects and human tissues were approved by IRB committee of Van Andel Research Institute.
as §1

[9] = system: U87M2; experiment: Serum HGF ELISA, U87M2 tumor-bearing mice; type: in vivo; details: end of efficacy study, mean ± SD
Description: as §2

[10] = system: U87M2 cells; experiment: HGF/EGF-induced downstream signaling, Western blot, U87M2; type: cell-based, human; details: 1-10 μM, regardless of additional HGF or EGF stimulation
Description: (§4) Cells were seeded in 10-cm dishes and grown until 80% confluent. After serum starvation overnight, cells were treated with or without SGX523 for 4 h with (or without) human HGF/SF or EGF (100 ng/ml) for 20 minutes at 37° C. The cells were washed twice with ice-cold 1×PBS, and whole cell lysates were prepared using RIPA buffer. The protein concentrations were determined by DC protein assay. Equal amounts of total protein (30 μg) from cell lysates were loaded on a 4-20% SDS-PAGE gel (invitrogen), transferred to a polyvinylidene difluoride (PVDF) membrane (Invitrogen), and detected using an ECL Western Blotting Detection System (GE Healthcare). Antibodies used were human Met (clone 25H2,), phospho-Met (Y1234/1235), human EGFR (clone D38B1), phosphor-EGFR(Y1068), AKT, phospho-AKT (S473), p42/44 MAPK, phospho-p42/44 MAPK (T202/Y204) (all from Cell Signaling Technology); β-actin (clone AC-15, Abcam); and anti-HGFantibody (Clone 7-2, provided by Dr. Brian Cao at Van Andel Research Institute). Secondary antibodies used were goat anti-rabbit IgG-HRP and goat anti-mouse IgG-HRP (Santa Cruz Biotechnology).

[11] = system: DBM2 cells; experiment: HGF/EGF-induced downstream signaling, Western blot, DBM2; type: cell-based, human
Description: as §4

[12] = system: U118; experiment: In vivo SGX523 and erlotinib therapeutic efficacy study, U118 xenograft; set-up: species or system mice; details: U118 subcutaneous; P<0.05 at all three doses
Description: as §1

[13] = system: U87M2 cells; experiment: uPA activity in HGF-autocrine U87M2 cells; type: cell-based, human; details: even when stimulated by EGF
Description: as §3

[14] = system: SF295SQ1; experiment: In vivo SGX523 and erlotinib therapeutic efficacy study, SF295SQ1 xenograft; set-up: species or system mice; details: SF295SQ1 subcutaneous; P<0.05 at all three doses
Description: as §1

[15] = system: GBM; details: phase II clinical trials; cited from earlier work
[16] = system: recurrent GBM; details: clinical trials against recurrent GBM; cited from earlier work

Compound	tumor response [1]	tumor sensitivity to single agent [4]	Serum HGF concentration ([5]; U118, SCID mice)	Serum HGF concentration ([5]; U118, SCIDhgf mice) [pg/mL]	Serum HGF concentration ([6]; SF295 SQ1, SCID mice)	Serum HGF concentration ([6]; SF295 SQ1, SCIDhgf mice) [pg/mL]	cross inhibition between MET and EGFR pathways (uPA activity) [7]	tumor response [8]	Serum HGF concentration ([9]; U87M2, SCID mice)	Serum HGF concentration ([9]; U87M2, SCIDhgf mice) [pg/mL]	other results
C#Cc1cccc(Nc2ncnc3cc(OCCOC)c(OCCOC)cc23)c1 [Erlotinib, erlotinib]	very sensitive	tolerate	348.7 ± 172^ pg/ml	2940 ± 746	858 ± 670 ^ pg/ml	4000 ± 1132	no evidence of cross inhibition	induced tumor regression	1277 ± 679 pg/mL	8233 ± 3311	p-EGFR in tumor lysates ([1]; X01-GB, Western blot with tumor lysates): significantly reduced; prolonged inhibition of U87M2 tumor growth ([2]; FIG. 7: SGX523 90 or 120 mg/kg, erlotinib 150 mg/kg, p<0.05 for combination): failed; tumor sensitivity to single agent [3]: somewhat sensitive; inhibition of EGF-induced uPA activity ([7]; within 24 hrs, U251M2, T98G, DBM2 cells): specifically blocked; p-EGFR expression in tumor lysates ([8]; V13, Western blot with tumor lysates): significantly reduced
Cn1cc(-c2ccc3nnc(Sc4ccc5ncccc5c4)n3n2)cn1 [SGX523]	do not respond	tolerate	91 ± 85 ^5, 6 pg/ml	4149 ± 1264	262 ± 138 ^4 pg/ml	4214 ± 1084	no evidence of cross inhibition	no response	152 ± 85 ^4 pg/ml	6330 ± 2240	tumor regrowth under continuous dosing ([2]; U87M2, continuous dosing with SGX523): start to grow back after 2 weeks; tumor regression ([2]; U87M2, first week after treatment started): induces U87M2 tumor regression; xenograft tumor sensitivity ([2]; U87M2 subcutaneous, P<0.05 at all three doses): sensitive to SGX523 in a dose-dependent manner; tumor growth response ([3]; SGX523 60 mg/kg): no response; inhibition of p-Met and downstream MAPK and AKT pathways [10]: can inhibit p-Met and downstream MAPK and AKT pathways; tumor growth response at increased dose ([4]; 120 mg/kg): did not improve the responsive; tumor growth response ([4]; SGX523 60 mg/kg): no response; inhibition of EGF induced p-EGFR [11]: did not inhibit; xenograft tumor sensitivity [12]: sensitive to SGX523 in a dose-dependent manner; inhibition of basal level of uPA activity [13]: did inhibit the basal level of uPA activity; xenograft tumor sensitivity [14]: sensitive to SGX523 in a dose-dependent manner; inhibition of HGF-induced uPA activity ([7]; SGX523 at 0.1 μM after 24 h, U251M2, T98G, DBM2 cells): inhibited HGF-induced uPA activity
COc1cc2nccc(Oc3ccc(NC(=O)C4(C(=O)Nc5ccc(F)cc5)CC4)cc3)c2cc1OC [XL184]											clinical efficacy [15]: promising efficacy
AMG102: a neutralizing antibody against HGF											clinical outcome [16]: failed in clinical trials
